Laboratory results as given in the CheMixHub viscosity set.
± gives the uncertainty stated by the source.

Experiment: xn = mol fraction of the nth substance listed

CCCCCCCC(=O)OCC(COC(=O)CCCCCCC)OC(=O)CCCCCCC + CCCCO
viscosity [mPa·s], 101.33 kPa
Settings | x1 = 0.1 | x1 = 0.2 | x1 = 0.3 | x1 = 0.4 | x1 = 0.5 | x1 = 0.6 | x1 = 0.7 | x1 = 0.8 | x1 = 0.9
298 K | 3.87 ± 0.05 | 5.49 ± 0.07 | 7.15 ± 0.09 | 8.84 ± 0.12 | 10.54 ± 0.15 | 12.28 ± 0.18 | 14.02 ± 0.22 | 16.05 ± 0.27 | 18 ± 0.32
303 K | 3.4 ± 0.1 | 4.73 ± 0.06 | 6.13 ± 0.08 | 7.53 ± 0.1 | 8.91 ± 0.12 | 10.29 ± 0.15 | 11.73 ± 0.18 | 13.34 ± 0.22 | 14.82 ± 0.26
308 K | 2.97 ± 0.04 | 4.12 ± 0.05 | 5.28 ± 0.07 | 6.46 ± 0.08 | 7.57 ± 0.1 | 8.74 ± 0.13 | 9.89 ± 0.15 | 11.2 ± 0.18 | 12.39 ± 0.22
313 K | 2.62 ± 0.03 | 3.61 ± 0.04 | 4.59 ± 0.06 | 5.56 ± 0.07 | 6.51 ± 0.09 | 7.48 ± 0.11 | 8.44 ± 0.13 | 9.52 ± 0.16 | 10.52 ± 0.18

COC(=O)c1ccccc1 + COc1ccccc1
viscosity [mPa·s], 100 kPa
Settings | x1 = 0.0898 | x1 = 0.1468 | x1 = 0.228 | x1 = 0.3145 | x1 = 0.4054 | x1 = 0.5056 | x1 = 0.6161 | x1 = 0.7316 | x1 = 0.8597
303.15 K | 0.974 ± 0.04 | 1.038 ± 0.042 | 1.101 ± 0.045 | 1.187 ± 0.048 | 1.234 ± 0.05 | 1.307 ± 0.053 | 1.391 ± 0.056 | 1.48 ± 0.06 | 1.572 ± 0.064
308.15 K | 0.894 ± 0.036 | 0.949 ± 0.039 | 1.007 ± 0.041 | 1.086 ± 0.044 | 1.129 ± 0.046 | 1.195 ± 0.049 | 1.272 ± 0.052 | 1.355 ± 0.055 | 1.439 ± 0.058
313.15 K | 0.8 ± 0.033 | 0.85 ± 0.035 | 0.902 ± 0.037 | 0.972 ± 0.04 | 1.012 ± 0.041 | 1.074 ± 0.044 | 1.144 ± 0.047 | 1.22 ± 0.05 | 1.301 ± 0.053

C[N+]1(CC2CO2)CCCC1=O.[Cl-] (stereo not given) + CC(=O)O
viscosity [mPa·s], 101 kPa
Settings | 293.15 K | 298.15 K | 303.15 K | 308.15 K | 313.15 K
x1 = 0.0373 | 1.592 ± 0.035 | 1.448 ± 0.032 | 1.322 ± 0.029 | 1.213 ± 0.026 | 1.115 ± 0.024
x1 = 0.0644 | 1.83 ± 0.04 | 1.652 ± 0.036 | 1.5 ± 0.033 | 1.371 ± 0.03 | 1.256 ± 0.028
x1 = 0.1087 | 2.234 ± 0.049 | 2 ± 0.044 | 1.802 ± 0.04 | 1.632 ± 0.036 | 1.489 ± 0.033
x1 = 0.2041 | 2.728 ± 0.06 | 2.425 ± 0.053 | 2.172 ± 0.048 | 1.959 ± 0.043 | 1.776 ± 0.039
x1 = 0.3022 | 2.803 ± 0.062 | 2.492 ± 0.055 | 2.235 ± 0.05 | 2.018 ± 0.045 | 1.831 ± 0.041
x1 = 0.4053 | 2.587 ± 0.058 | 2.314 ± 0.052 | 2.087 ± 0.047 | 1.892 ± 0.042 | 1.723 ± 0.038
x1 = 0.5054 | 2.324 ± 0.052 | 2.095 ± 0.047 | 1.9 ± 0.043 | 1.731 ± 0.039 | 1.586 ± 0.036
x1 = 0.605 | 2.107 ± 0.048 | 1.908 ± 0.043 | 1.738 ± 0.039 | 1.591 ± 0.036 | 1.465 ± 0.033
x1 = 0.7073 | 1.919 ± 0.044 | 1.746 ± 0.04 | 1.597 ± 0.036 | 1.469 ± 0.034 | 1.356 ± 0.031
x1 = 0.8065 | 1.817 ± 0.042 | 1.657 ± 0.038 | 1.521 ± 0.035 | 1.402 ± 0.032 | 1.297 ± 0.03
x1 = 0.9047 | 1.752 ± 0.041 | 1.602 ± 0.037 | 1.473 ± 0.034 | 1.36 ± 0.032 | 1.261 ± 0.029

CCOC(=O)CCl + CCCCCCCCCC
viscosity [mPa·s], 101.33 kPa
Settings | x1 = 0.0992 | x1 = 0.2037 | x1 = 0.3031 | x1 = 0.4005 | x1 = 0.5016 | x1 = 0.6027 | x1 = 0.7039 | x1 = 0.8019 | x1 = 0.9008
298.15 K | 0.821 ± 0.015 | 0.825 ± 0.014 | 0.828 ± 0.015 | 0.843 ± 0.016 | 0.869 ± 0.016 | 0.897 ± 0.017 | 0.93 ± 0.018 | 0.969 ± 0.02 | 1.024 ± 0.019
303.15 K | 0.761 ± 0.014 | 0.766 ± 0.014 | 0.767 ± 0.014 | 0.78 ± 0.014 | 0.801 ± 0.015 | 0.827 ± 0.016 | 0.854 ± 0.017 | 0.885 ± 0.017 | 0.946 ± 0.018
308.15 K | 0.707 ± 0.012 | 0.713 ± 0.013 | 0.719 ± 0.012 | 0.725 ± 0.013 | 0.742 ± 0.014 | 0.765 ± 0.014 | 0.791 ± 0.014 | 0.829 ± 0.014 | 0.872 ± 0.016

CCCCCCCCN(CCCCCCCC)CCCCCCCC + CCCCCC
Settings | viscosity [mPa·s]
298 K, 101.3 kPa, x1 = 0.00584 | 0.331 ± 0.011

CC(C)OCCO + CN(C)C=O
298.15 K, 101 kPa
Settings | viscosity [mPa·s]
x1 = 0.0025 | 0.815 ± 0.011
x1 = 0.0124 | 0.827 ± 0.011
x1 = 0.0296 | 0.854 ± 0.011
x1 = 0.048 | 0.885 ± 0.011
x1 = 0.0898 | 0.932 ± 0.012
x1 = 0.1476 | 1.006 ± 0.013
x1 = 0.1908 | 1.066 ± 0.014
x1 = 0.2558 | 1.142 ± 0.015
x1 = 0.3145 | 1.213 ± 0.016
x1 = 0.344 | 1.247 ± 0.016
x1 = 0.3645 | 1.274 ± 0.017
x1 = 0.4159 | 1.34 ± 0.018
x1 = 0.4723 | 1.42 ± 0.019
x1 = 0.52 | 1.491 ± 0.02
x1 = 0.562 | 1.543 ± 0.021
x1 = 0.6131 | 1.617 ± 0.022
x1 = 0.6641 | 1.697 ± 0.024
x1 = 0.7547 | 1.818 ± 0.026
x1 = 0.7959 | 1.874 ± 0.027
x1 = 0.8833 | 2.005 ± 0.029
x1 = 0.9392 | 2.069 ± 0.031
x1 = 0.9642 | 2.093 ± 0.031
x2 = 0.0058 | 2.104 ± 0.032

CC(C)c1cc(C(C)C)cc(C(C)C)c1 + CCCCCCCCCCCC
viscosity [mPa·s], 102 kPa
Settings | x1 = 0.0997 | x1 = 0.2002 | x1 = 0.3009 | x1 = 0.4002 | x1 = 0.5003 | x1 = 0.6001 | x1 = 0.7001 | x1 = 0.8002 | x1 = 0.8999
293.15 K | 1.57 ± 0.02 | 1.67 ± 0.02 | 1.8 ± 0.03 | 1.94 ± 0.03 | 2.14 ± 0.03 | 2.37 ± 0.04 | 2.67 ± 0.04 | 3.05 ± 0.05 | 3.51 ± 0.06
303.15 K | 1.31 ± 0.02 | 1.39 ± 0.02 | 1.48 ± 0.02 | 1.59 ± 0.03 | 1.73 ± 0.03 | 1.89 ± 0.03 | 2.09 ± 0.04 | 2.35 ± 0.04 | 2.66 ± 0.05
313.15 K | 1.11 ± 0.02 | 1.17 ± 0.02 | 1.24 ± 0.02 | 1.32 ± 0.02 | 1.42 ± 0.03 | 1.54 ± 0.03 | 1.69 ± 0.03 | 1.86 ± 0.03 | 2.08 ± 0.04
323.15 K | 0.956 ± 0.021 | 1 ± 0.02 | 1.05 ± 0.02 | 1.12 ± 0.02 | 1.19 ± 0.02 | 1.28 ± 0.03 | 1.39 ± 0.03 | 1.52 ± 0.03 | 1.67 ± 0.03
